Experimental data from the NIST ThermoML archive (doi:10.1021/acs.jced.9b00021).
± gives the expanded uncertainty stated by the source.

Assay: wn = mass fraction of the nth substance listed
Settings: 400 kPa, Liquid, Concentric cylinders viscometry

CN(CCO)CCO [N-methyldiethanolamine] + O
viscosity [mPa·s]
Settings | w1 = 0.3 | w1 = 0.4 | w1 = 0.5 | w1 = 0.6 | w1 = 0.7 | w1 = 0.8 | w1 = 0.9 | w1 = 0.95 | w1 = 1
298.15 K | 3.02 ± 0.48 | 5.21 ± 0.64 | 9.13 ± 1.2 | 16.91 ± 2.1 | 30.09 ± 3.7 | 53.42 ± 4.5 | 75.12 ± 3.3 | 76.07 ± 0.73 | 73.1 ± 0.58
303.15 K | 2.64 ± 0.41 | 4.41 ± 0.53 | 7.51 ± 0.92 | 13.4 ± 1.6 | 23.11 ± 2.7 | 40.03 ± 3.3 | 56.05 ± 2.7 | 57.55 ± 0.4 | 55.89 ± 0.39
308.15 K | 2.28 ± 0.35 | 3.71 ± 0.44 | 6.17 ± 0.73 | 10.73 ± 1.2 | 18.01 ± 2 | 30.42 ± 2.4 | 42.37 ± 2.1 | 44.18 ± 0.41 | 43.45 ± 0.35
313.15 K | 1.97 ± 0.31 | 3.15 ± 0.37 | 5.13 ± 0.59 | 8.68 ± 0.93 | 14.22 ± 1.5 | 23.47 ± 1.9 | 32.56 ± 1.6 | 34.3 ± 0.43 | 34.15 ± 0.3
318.15 K | 1.75 ± 0.28 | 2.73 ± 0.33 | 4.34 ± 0.49 | 7.15 ± 0.74 | 11.42 ± 1.1 | 18.44 ± 1.4 | 25.45 ± 1.3 | 27.04 ± 0.43 | 27.15 ± 0.27
323.15 K | 1.54 ± 0.26 | 2.36 ± 0.29 | 3.68 ± 0.41 | 5.92 ± 0.59 | 9.26 ± 0.9 | 14.67 ± 1.1 | 20.13 ± 1 | 21.55 ± 0.42 | 21.82 ± 0.24
328.15 K | 1.38 ± 0.24 | 2.07 ± 0.27 | 3.18 ± 0.35 | 4.99 ± 0.49 | 7.64 ± 0.71 | 11.84 ± 0.88 | 16.18 ± 0.82 | 17.38 ± 0.39 | 17.79 ± 0.23
333.15 K | 1.24 ± 0.23 | 1.83 ± 0.25 | 2.76 ± 0.31 | 4.23 ± 0.41 | 6.36 ± 0.58 | 9.67 ± 0.71 | 13.16 ± 0.67 | 14.14 ± 0.37 | 14.63 ± 0.22
338.15 K | 1.15 ± 0.22 | 1.65 ± 0.24 | 2.43 ± 0.28 | 3.66 ± 0.36 | 5.38 ± 0.48 | 8.02 ± 0.58 | 10.81 ± 0.55 | 11.64 ± 0.35 | 12.2 ± 0.21
343.15 K | 1.06 ± 0.22 | 1.49 ± 0.23 | 2.16 ± 0.26 | 3.18 ± 0.32 | 4.59 ± 0.41 | 6.71 ± 0.48 | 8.98 ± 0.46 | 9.66 ± 0.32 | 10.21 ± 0.21
348.15 K | 0.97 ± 0.21 | 1.35 ± 0.22 | 1.92 ± 0.25 | 2.77 ± 0.28 | 3.94 ± 0.35 | 5.66 ± 0.41 | 7.52 ± 0.4 | 8.09 ± 0.3 | 8.6 ± 0.21
353.15 K | 0.89 ± 0.21 | 1.22 ± 0.22 | 1.72 ± 0.23 | 2.43 ± 0.26 | 3.41 ± 0.31 | 4.81 ± 0.36 | 6.35 ± 0.35 | 6.82 ± 0.28 | 7.31 ± 0.21
358.15 K | 0.84 ± 0.21 | 1.13 ± 0.21 | 1.58 ± 0.23 | 2.18 ± 0.25 | 3 ± 0.28 | 4.16 ± 0.32 | 5.44 ± 0.31 | 5.83 ± 0.26 | 6.29 ± 0.2
363.15 K | 0.81 ± 0.21 | 1.05 ± 0.21 | 1.45 ± 0.22 | 1.97 ± 0.23 | 2.65 ± 0.26 | 3.63 ± 0.29 | 4.69 ± 0.28 | 5.01 ± 0.25 | 5.43 ± 0.2
368.15 K | 0.79 ± 0.2 | 0.97 ± 0.21 | 1.33 ± 0.22 | 1.77 ± 0.23 | 2.37 ± 0.25 | 3.18 ± 0.26 | 4.09 ± 0.26 | 4.33 ± 0.24 | 4.72 ± 0.2
373.15 K | 0.76 ± 0.2 | 0.91 ± 0.21 | 1.23 ± 0.21 | 1.61 ± 0.22 | 2.12 ± 0.23 | 2.82 ± 0.25 | 3.58 ± 0.24 | 3.77 ± 0.23 | 4.12 ± 0.2
